Earlier results on 22 compounds are cited in patent publication US20250241296A1, “HIGH-LOAD AGRICULTURAL FORMULATIONS AND METHODS OF MAKING SAME” (priority 2022, published 2025).

The conditions of series [1]: footnote a: values from the Chemistry Dashboard of the US Environmental Protection Agency.
For series [2] the following is noted: footnote a: values from the Chemistry Dashboard of the US Environmental Protection Agency. The source holds these as a separate data set.

Consider `CNC(=O)c1cc(C#N)cc(C)c1NC(=O)c1cc(Br)nn1-c1ncccc1Cl` [Cyantraniliprole], for which the Density in series [1] was 1.65^a g/mL.
As for Spinosad, in series [2], the “Solubility in Water” value was 295^a mg/L. The Density in series [1] is reported as 1.20^a g/mL.
In the case of `CC12CC1(C)C(=O)N(c1cc(Cl)cc(Cl)c1)C2=O` (stereo not drawn) [Procymidone], the Density in series [1] was 1.43^a g/mL.
Turning to `CNC(=O)c1cc(Cl)cc(C)c1NC(=O)c1cc(Br)nn1-c1ncccc1Cl` [Chlorantraniliprole], the Density in series [1] is reported as 1.65^a g/mL.
With `N#Cc1c[nH]cc1-c1cccc2c1OC(F)(F)O2` [Fludioxinil], in series [1], the Density is on record as 1.54^a g/mL.
`COCC(=O)N(c1c(C)cccc1C)[C@H](C)C(=O)OC` [Metalaxyl-M]: the Density in series [1] was 1.09^a g/mL.
Turning to `Fc1ccc([C@]2(Cn3cncn3)O[C@H]2c2ccccc2Cl)cc1` (racemic) [Epoxiconazole], the Density in series [1] is listed as 1.42^a g/mL.
For `Cc1nn(C)c(F)c1C(=O)Nc1ccccc1C(C)CC(C)C` (stereo not drawn) [Penflufen], the Density in series [1] is recorded as 1.18^a g/mL.
As for `CO/C=C(/C(=O)OC)c1ccccc1COc1cccc(C(F)(F)F)n1` [Picoxystrobin], the “Solubility in Water” value in series [2] is 8.30^a mg/L. In series [1], the Density is reported as 1.28^a g/mL.
Abamectin: in series [2], the “Solubility in Water” value was 36.4^a mg/L. The Density in series [1] was 1.28^a g/mL.
For the compound `CN1COCN(Cc2cnc(Cl)s2)/C1=N\[N+](=O)[O-]` [Thiamethoxam], the Density in series [1] is 1.76^a g/mL.
As for `CC(c1ccc(C(F)(F)F)nc1)S(C)(=O)=NC#N` (stereo not drawn) [Sulfoxaflor], in series [1], the Density is recorded as 1.34^a g/mL.
Take `Cc1cc(C(F)(C(F)(F)F)C(F)(F)F)ccc1NC(=O)c1cccc(I)c1C(=O)NC(C)(C)CS(C)(=O)=O` [Flubendiamide]: in series [1], the Density is 1.78^a g/mL.
In the case of `CNC(=O)/C(=N/OC)c1ccccc1Oc1ccccc1` [Metominostrobin], the Density in series [1] is given as 1.13^a g/mL.
Consider `COC(=O)Nc1nc2ccccc2[nH]1` [Carbendazim], for which, in series [1], the Density is on record as 1.39^a g/mL.
Consider `CO/C=C(/C(=O)OC)c1ccccc1Oc1cc(Oc2ccccc2C#N)ncn1` [Azoxystrobin], for which the “Solubility in Water” value in series [2] is reported as 6.01^a mg/L. Further, the Density in series [1] is 1.34^a g/mL.
Regarding `O=[N+]([O-])c1cc(C(F)(F)F)c(Cl)c([N+](=O)[O-])c1Nc1ncc(C(F)(F)F)cc1Cl` [Fluazinam], in series [1], the Density is 1.80^a g/mL.
`COC(=O)N(OC)c1ccccc1COc1ccn(-c2ccc(Cl)cc2)n1` [Pyraclostrobin]: in series [1], the Density is on record as 1.34^a g/mL.
As for Spinetoram, the “Solubility in Water” value in series [2] is given as 162^a mg/L. For the same compound, the Density in series [1] is 1.18^a g/mL.
As for `CC(C1CC1)C(O)(Cn1cncn1)c1ccc(Cl)cc1` (stereo not drawn) [Cyproconazole], the Density in series [1] is reported as 1.31^a g/mL.
For the compound `CCCC1COC(Cn2cncn2)(c2ccc(Cl)cc2Cl)O1` (stereo not drawn) [Propiconazole], in series [1], the Density is 1.39^a g/mL.
Take `N#Cc1ccccc1NC(=O)c1snc(Cl)c1Cl` [Isotianil]: in series [1], the Density was 1.56^a g/mL.
